Source: patent US11242539B2, “Elite event EE-GM4 and methods and kits for identifying such event in biological samples” (priority 2016, dated 2022)

Test system: soybean plants containing event EE-GM4
Test: HPPD inhibitor herbicide tolerance field trials (maximum phytotoxicity)
Format: in vivo, Glycine max
Details: for tolerance of plants with EE-GM4 to herbicide: field; for average maximum phytotoxicity value: several field trials across 2 years
Text: Numbers in ( ) below a treatment give the number of trials included in the bar, the number on top of each bar gives the average maximum phytotoxicity value for that treatment. Treatments applied were: IFT=isoxaflutole, MST=mesotrione, PE=pre-emergence, PO=post-emergence (at V2-V3 stage, with adjuvants crop oil concentrate and ammonium sulfate added to increase herbicide activity). Rates shown are in gram active ingredient/hectare (4× dose in pre-emergence, 2× dose in post-emergence).
Tolerance of plants comprising EE-GM4 to HPPD inhibitor herbicides was tested at different locations in the field over 2 years. […] All post-emergence treatments were at the V2-V3 stage, with adjuvants crop oil concentrate and ammonium sulfate added to increase herbicide activity.
The “maximum phytotoxicity” as used herein is the highest phytotoxicity rating recorded at any observation during the duration of a trial (with 3 to 4 observations per trial). In existing weed control applications, a normal (lx) dose for isoxaflutole (IFT) in pre- or post-emergence application and for MST in post-emergence application is 105 gr/ha, and a normal (1×) dose for mesotrione in pre-emergence application is 210 gr/ha.
Also, in several field trials across 2 years, soybean plants with event EE-GM4 had good tolerance towards experimental HPPD inhibitor compound 2-methyl-N-(5-methyl-1,3,4-oxadiazol-2-yl)-3-(methylsulfonyl)-4-(trifluoromethyl)benzamide (U.S. Pat. No. 9,101,141) when applied pre-emergence at 400 gr ai/ha or post-emergence at 200 gr ai/ha, respectively (the average maximum phytotoxicity value for each treatment was below 20%). […] All post-emergence treatments were at the V2-V3 stage, with adjuvants crop oil concentrate and ammonium sulfate added to increase herbicide activity.

[1] = applied post-emergence at V2-V3 stage with crop oil concentrate and ammonium sulfate, over 2 years
[2] = applied pre-emergence, different locations over 2 years

Row | Structure (SMILES) | tolerance of plants with EE-GM4 to herbicide [1] | tolerance of plants with EE-GM4 to herbicide [2] | average maximum phytotoxicity (post-emergence at 100-150 gr ai/ha, V2-V3 stage with adjuvants) [%] | average maximum phytotoxicity value (post-emergence at 200 gr ai/ha, V2-V3 stage with adjuvants) | average maximum phytotoxicity value (pre-emergence at 400 gr ai/ha)
1 | CS(=O)(=O)c1cc(C(F)(F)F)ccc1C(=O)c1cnoc1C1CC1 [isoxaflutole, (5-cyclopropyl-4-isoxazolyl)[2-(methylsulfonyl)-4-(trifluoromethyl)phenyl]methanone] | crop damage was a bit higher | commercially relevant tolerance |  |  | 
2 | CSc1c(C(F)(F)F)ccc(C(=O)Nc2nnnn2C)c1Cl [2-chloro-3-(methylsulfanyl)-N-(1-methyl-1H-tetrazol-5-yl)-4-(trifluoromethyl)benzamide] |  |  | 30 |  | 
3 | CS(=O)(=O)c1ccc(C(=O)C2C(=O)CCCC2=O)c([N+](=O)[O-])c1 [mesotrione, 2-[4-(Methylsulfonyl)-2-nitrobenzoyl]cyclohexane-1,3-dione] | commercially relevant tolerance | commercially relevant tolerance |  |  | 
4 | Cc1nnc(NC(=O)c2ccc(C(F)(F)F)c(S(C)(=O)=O)c2C)o1 [2-methyl-N-(5-methyl-1,3,4-oxadiazol-2-yl)-3-(methylsulfonyl)-4-(trifluoromethyl)benzamide] |  |  |  | below 20% | below 20%
